Measured values: paper PMC8294059, “Identification and Immune Assessment of T Cell Epitopes in Five Plasmodium falciparum Blood Stage Antigens to Facilitate Vaccine Candidate Selection and Optimization” (Frontiers in Immunology, 2021)
Where a SMILES comes first, the peptide text is derived from it.

Target: HLA-A*0201 (Homo sapiens, UniProt P04439, D140Y/D185E/D98H/E176V/E277Q/G131W/G231S/I119V/I121R/I166T/I218V/L300P/L318F/N151K/N90K/P208A/P217A/Q86G/Q94H/R138H/R169H/T345S)
Assay: In vitro class I HLA binding assay (fluorescence polarization competition)
Settings: allele A*0201; cell-free competition, fluorescence polarization at 72 hours; Non-binder = no dose-dependent inhibition; read-out: IC50
Protocol: A cell-free class I HLA binding assay that allows for in vitro quantification of peptide-HLA binding affinity in a competition format was used. In this assay, a fluorescently labeled, high binding, control peptide is loaded onto 384-well ½-area plates along with unlabeled experimental peptides. To remove endogenous peptides and render the HLA A and B molecules receptive to binding, HLA is heated at 53°C for 15 minutes and immediately added to the assay. The mixture is then allowed to stand for three days. Once the mixture has reached steady equilibrium (at 72 hours), displacement of the high binding control peptide is measured through fluorescence polarization. Binding of experimental peptides is expressed as the percent inhibition of the labeled control peptide (experimental fluorescence / control fluorescence, multiplied by 100). The percent inhibition values for each experimental peptide (across a range of molar concentrations) are used to calculate the concentration which inhibits 50% of the labeled control peptide’s specific binding. This value is referred to as the peptide’s IC50.

| Compound | IC50 [nM] |
| --- | --- |
| CC[C@H](C)[C@H](NC(=O)[C@H](CC(C)C)NC(=O)[C@@H](N)CO)C(=O)N[C@@H](CCCCN)C(=O)N[C@@H](CCC(N)=O)C(=O)N[C@@H](CC(N)=O)C(=O)N[C@@H](CCCCN)C(=O)N[C@@H](Cc1ccc(O)cc1)C(=O)N[C@H](C(=O)O)C(C)C [EBA175_0116] (H-SLIKQNKYV-OH) | 29900 |
| CC[C@H](C)[C@H](NC(=O)[C@@H](NC(=O)[C@H](CC(N)=O)NC(=O)[C@H](CC(=O)O)NC(=O)[C@H](CC(N)=O)NC(=O)CNC(=O)[C@H](CC(N)=O)NC(=O)[C@H](CC(C)C)NC(=O)[C@@H](NC(=O)[C@@H](N)CO)C(C)C)[C@@H](C)O)C(=O)O [EBA175_0436] (H-SVLNGNDNTI-OH) | 640000 |
| CC[C@H](C)[C@H](NC(=O)[C@@H](NC(=O)[C@H](CC(N)=O)NC(=O)[C@H](CC(=O)O)NC(=O)[C@H](CC(N)=O)NC(=O)CNC(=O)[C@H](CC(N)=O)NC(=O)[C@H](CC(C)C)NC(=O)[C@@H](N)C(C)C)[C@@H](C)O)C(=O)O [EBA175_0437] (H-VLNGNDNTI-OH) | 7310 |
| CC[C@H](C)[C@H](NC(=O)[C@H](CO)NC(=O)[C@H](CCCCN)NC(=O)[C@H](Cc1ccccc1)NC(=O)[C@H](CCC(=O)O)NC(=O)[C@H](CO)NC(=O)[C@H](Cc1ccc(O)cc1)NC(=O)[C@H](CCSC)NC(=O)[C@@H](N)CCCCN)C(=O)O [EBA175_0697] (H-KMYSEFKSI-OH) | 1020 |
| CC(C)C[C@H](NC(=O)[C@H](CC(N)=O)NC(=O)[C@H](CC(=O)O)NC(=O)[C@@H](NC(=O)[C@@H](NC(=O)[C@H](CCC(=O)O)NC(=O)[C@H](Cc1ccccc1)NC(=O)[C@H](CC(C)C)NC(=O)[C@@H](N)Cc1ccccc1)C(C)C)[C@@H](C)O)C(=O)O [EBA175_1461] (H-FLFEVTDNL-OH) | 269 |

Same assay, conditions: allele A*0201; fluorescence polarization competition; read-out: IC50 (nM), in vitro HLA binding affinity

| Compound | IC50 [nM] |
| --- | --- |
| CC[C@H](C)[C@H](NC(=O)[C@H](CCSC)NC(=O)[C@@H](N)CO)C(=O)N[C@@H](CCCCN)C(=O)N[C@@H](CO)C(=O)N[C@@H](C)C(=O)N[C@@H](Cc1ccccc1)C(=O)N[C@@H](CC(C)C)C(=O)N1CCC[C@H]1C(=O)N[C@H](C(=O)O)[C@@H](C)O [AMA1_373] (H-SMIKSAFLPT-OH) | 12500 |
| CC(C)C[C@H](NC(=O)[C@@H](N)Cc1ccccc1)C(=O)N1CCC[C@H]1C(=O)N[C@H](C(=O)NCC(=O)N[C@@H](C)C(=O)N[C@@H](Cc1ccccc1)C(=O)N[C@@H](CCCCN)C(=O)N[C@@H](C)C(=O)O)[C@@H](C)O [AMA1_379] (H-FLPTGAFKA-OH) | 1390 |
| CC[C@H](C)[C@H](NC(=O)[C@H](Cc1ccc(O)cc1)NC(=O)[C@H](CO)NC(=O)[C@H](CO)NC(=O)[C@H](CC(N)=O)NC(=O)[C@H](CC(N)=O)NC(=O)[C@@H](NC(=O)[C@H](CC(C)C)NC(=O)[C@@H](N)CS)[C@@H](C)CC)C(=O)O [AMA1_418] (H-CLINNSSYI-OH) | 3820 |
| CC[C@H](C)[C@H](NC(=O)[C@@H](N)Cc1ccccc1)C(=O)N[C@@H](CO)C(=O)N[C@@H](CC(=O)O)C(=O)N[C@@H](CC(=O)O)C(=O)N[C@@H](CCCCN)C(=O)N[C@@H](CC(=O)O)C(=O)N[C@@H](CO)C(=O)N[C@@H](CC(C)C)C(=O)O [AMA1_480] (H-FISDDKDSL-OH) | 336000 |
| CC[C@H](C)[C@H](NC(=O)[C@@H](NC(=O)[C@H](C)NC(=O)[C@H](CC(C)C)NC(=O)[C@@H](NC(=O)[C@H](C)N)C(C)C)[C@@H](C)O)C(=O)N[C@@H](CC(C)C)C(=O)N[C@@H](CCSC)C(=O)N[C@H](C(=O)O)C(C)C [AMA1_556] (H-AVLATILMV-OH) | 23600 |
| CC(C)C[C@H](NC(=O)[C@H](Cc1ccccc1)NC(=O)[C@H](Cc1ccccc1)NC(=O)[C@H](Cc1ccc(O)cc1)NC(=O)[C@H](CCC(N)=O)NC(=O)[C@@H](NC(=O)CNC(=O)[C@H](CC(C)C)NC(=O)[C@@H](N)CCCCN)C(C)C)C(=O)O [CYRPA_220] (H-KLGVQYFFL-OH) | 805 |
| CC[C@H](C)[C@H](NC(=O)[C@H](CC(N)=O)NC(=O)[C@H](CC(=O)O)NC(=O)CNC(=O)[C@@H](NC(=O)[C@@H](N)Cc1ccc(O)cc1)C(C)C)C(=O)N[C@@H](CC(N)=O)C(=O)N[C@@H](CC(N)=O)C(=O)N[C@H](C(=O)O)C(C)C [CYRPA_242] (H-YVGDNINNV-OH) | 1820 |
| CC[C@H](C)[C@H](NC(=O)[C@H](CO)NC(=O)[C@H](CC(N)=O)NC(=O)[C@H](CCC(=O)O)NC(=O)[C@H](CC(N)=O)NC(=O)[C@H](CC(N)=O)NC(=O)[C@H](Cc1ccccc1)NC(=O)[C@H](Cc1ccccc1)NC(=O)[C@@H](NC(=O)[C@@H](N)Cc1ccc(O)cc1)[C@@H](C)CC)C(=O)O [CYRPA_304] (H-YIFFNNENSI-OH) | 2830 |
| CC(C)C[C@H](NC(=O)CNC(=O)[C@H](CC(=O)O)NC(=O)[C@H](CC(N)=O)NC(=O)[C@@H](NC(=O)[C@H](CC(N)=O)NC(=O)[C@@H](NC(=O)[C@H](CC(N)=O)NC(=O)[C@H](CC(C)C)NC(=O)[C@@H](N)Cc1ccc(O)cc1)[C@@H](C)O)C(C)C)C(=O)O [RH5_86] (H-YLNTNVNDGL-OH) | 2830 |
| CC(C)C[C@H](NC(=O)[C@H](CCC(=O)O)NC(=O)[C@H](CCCCN)NC(=O)[C@H](Cc1ccccc1)NC(=O)[C@H](Cc1c[nH]cn1)NC(=O)[C@H](Cc1ccc(O)cc1)NC(=O)[C@H](CCC(N)=O)NC(=O)[C@H](CC(C)C)NC(=O)[C@@H](N)Cc1ccccc1)C(=O)O [RH5_144] (H-FLQYHFKEL-OH) | 14600 |
| CC[C@H](C)[C@H](NC(=O)[C@@H](N)CCCCN)C(=O)N[C@@H](CC(N)=O)C(=O)N[C@@H](CCC(=O)O)C(=O)N[C@H](C(=O)N[C@@H](Cc1ccc(O)cc1)C(=O)N[C@@H](CC(=O)O)C(=O)N[C@@H](CCCCN)C(=O)N[C@H](C(=O)O)C(C)C)[C@@H](C)O [RH5_212] (H-KINETYDKV-OH) | 10100 |
| CC[C@H](C)[C@H](NC(=O)[C@H](CC(C)C)NC(=O)[C@H](CCCCN)NC(=O)[C@H](Cc1c[nH]cn1)NC(=O)[C@@H](NC(=O)[C@@H](N)Cc1ccc(O)cc1)[C@@H](C)CC)C(=O)N[C@@H](CC(C)C)C(=O)N[C@@H](CO)C(=O)N[C@H](C(=O)O)C(C)C [RH5_363] (H-YIHKLILSV-OH) | 1150 |
| CC[C@H](C)[C@H](NC(=O)[C@H](Cc1ccccc1)NC(=O)[C@H](CCCCN)NC(=O)[C@@H](NC(=O)[C@@H](NC(=O)[C@H](CC(=O)O)NC(=O)[C@@H](NC(=O)[C@H](Cc1ccc(O)cc1)NC(=O)[C@@H](NC(=O)[C@@H](N)Cc1ccc(O)cc1)[C@@H](C)CC)[C@@H](C)CC)[C@@H](C)O)[C@@H](C)CC)C(=O)O [RH5_404] (H-YIYIDTIKFI-OH) | 53100 |
| CC[C@H](C)[C@H](N)C(=O)N[C@@H](CC(C)C)C(=O)N[C@@H](CC(=O)O)C(=O)N[C@@H](CCSC)C(=O)N[C@@H](CO)C(=O)N[C@@H](CC(N)=O)C(=O)N[C@@H](CCC(=O)O)C(=O)N[C@@H](Cc1ccc(O)cc1)C(=O)N[C@@H](CO)C(=O)N[C@@H](CC(C)C)C(=O)O [RH5_459] (H-ILDMSNEYSL-OH) | 6870 |
| CC[C@H](C)[C@H](NC(=O)[C@H](Cc1ccccc1)NC(=O)[C@H](CC(C)C)NC(=O)[C@@H](N)CO)C(=O)N[C@H](C(=O)N[C@@H](CO)C(=O)N[C@@H](CC(=O)O)C(=O)N[C@@H](Cc1c[nH]cn1)C(=O)N[C@@H](CC(C)C)C(=O)O)[C@@H](C)O [RH5_467] (H-SLFITSDHL-OH) | 7120 |
| CSCC[C@H](NC(=O)[C@H](CCC(N)=O)NC(=O)[C@@H](N)CCCNC(=N)N)C(=O)N[C@@H](CC(C)C)C(=O)N[C@@H](Cc1ccc(O)cc1)C(=O)N[C@@H](CC(N)=O)C(=O)N[C@H](C(=O)N[C@@H](Cc1ccccc1)C(=O)N[C@@H](Cc1ccc(O)cc1)C(=O)N[C@@H](CO)C(=O)O)[C@@H](C)O [RH5_476] (H-RQMLYNTFYS-OH) | 319000 |
| CC[C@H](C)[C@H](NC(=O)[C@H](CC(N)=O)NC(=O)[C@H](CC(N)=O)NC(=O)[C@H](CC(C)C)NC(=O)[C@@H](N)Cc1c[nH]cn1)C(=O)N[C@@H](Cc1ccccc1)C(=O)N[C@@H](Cc1c[nH]cn1)C(=O)N[C@@H](Cc1c[nH]cn1)C(=O)N[C@@H](CC(C)C)C(=O)O [RH5_489] (H-HLNNIFHHL-OH) | 225 |
| CC[C@H](C)[C@H](NC(=O)[C@H](CC(C)C)NC(=O)[C@H](Cc1c[nH]cn1)NC(=O)[C@H](Cc1c[nH]cn1)NC(=O)[C@H](Cc1ccccc1)NC(=O)[C@@H](NC(=O)[C@@H](N)CC(N)=O)[C@@H](C)CC)C(=O)N[C@@H](Cc1ccc(O)cc1)C(=O)N[C@H](C(=O)O)C(C)C [RH5_492] (H-NIFHHLIYV-OH) | 2290 |
| CC(C)C[C@H](NC(=O)[C@H](CO)NC(=O)[C@H](Cc1ccccc1)NC(=O)[C@@H](NC(=O)[C@H](CC(C)C)NC(=O)[C@@H](N)CCCCN)[C@@H](C)O)C(=O)N[C@@H](CC(=O)O)C(=O)N[C@@H](Cc1c[nH]cn1)C(=O)N[C@@H](CCCNC(=N)N)C(=O)N[C@H](C(=O)O)C(C)C [RIPR_0035] (H-KLTFSLDHRV-OH) | 8880 |
| CC[C@H](C)[C@H](NC(=O)[C@H](CO)NC(=O)[C@H](C)NC(=O)[C@H](CC(=O)O)NC(=O)[C@H](CC(=O)O)NC(=O)[C@H](CC(N)=O)NC(=O)[C@H](Cc1ccc(O)cc1)NC(=O)[C@H](CCC(N)=O)NC(=O)[C@@H](N)Cc1ccccc1)C(=O)O [RIPR_0991] (H-FQYNDDASI-OH) | 275 |
| CC[C@H](C)[C@H](NC(=O)[C@H](CCCCN)NC(=O)[C@H](Cc1c[nH]c2ccccc12)NC(=O)[C@@H](NC(=O)[C@@H](NC(=O)[C@H](CCC(N)=O)NC(=O)[C@H](CC(N)=O)NC(=O)[C@H](Cc1ccc(O)cc1)NC(=O)[C@@H](NC(=O)[C@@H](N)Cc1ccc(O)cc1)[C@@H](C)CC)[C@@H](C)CC)[C@@H](C)CC)C(=O)O [RIPR_1011] (H-YIYNQIIWKI-OH) | 1950 |
